Data reported in ChEMBL document CHEMBL1201862, “PubChem BioAssay data set” (2004).
Active and inactive are the calls of the source.

Key:
[1] = molecular target: Eukaryotic translation initiation factor 4H (Homo sapiens, UniProt Q15056); assay: human eIF4H binding inhibitors, primary screen, translation initiation inhibitor project, biochemical, uHTS, fluorescence polarization (AID 2012)
[2] = molecular target: Polyadenylate-binding protein 1 (Homo sapiens, UniProt P11940); assay: PABP poly(A) RNA binding inhibitors, primary screen, biochemical, fluorescence polarization, uHTS (AID 2014)
[3] = molecular target: Mucolipin-3 (Homo sapiens, UniProt Q8TDD5); assay: Dose response cell-based high-throughput screening assay for agonists of the transient receptor potential channel ML3 (TRPML3). [Related pubchem assays: 1526, 1424, 1448 ]; assay type: functional
[4] = molecular target: Ion channel NompC (Danio rerio, UniProt Q7T1G6); assay: Fluorescence counterscreen assay for TRPML3 agonists: dose response cell-based high-throughput screening assay to identify agonists of the transient receptor potential channel N1 (TRPN1). [Related pubchem assays: 1526, 1424, 1448 ]; assay type: functional
[5] = tested on: HEK293; assay: Fluorescence-based counterscreen for potentiators or agonists of NPY-Y2: cell-based high-throughput dose response assay to identify inhibitors of cyclic nucleotide gated ion channel (CNGC) activity. In this assay, the parental HEK293 cell line transfected with a cyclic-nucleotide gated ion channel (CNGC)-based cAMP sensor is used to measure inhibition of isoproterenol-induced CNGC activity by test compound.; assay type: functional; conditions: Homo sapiens;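 also: stimulus is 1 µM isoproterenol at EC100 plus PDE inhibitor Ro 20-1724 at 25 µM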
[6] = molecular target: Neuropeptide Y receptor type 2 (Homo sapiens, UniProt P49146); assay: Fluorescence-based cell-based high-throughput dose response assay for agonists of NPY-Y2. [Related pubchem assays: 1703 (Screening assay (CNGC inhibitors).), 1359 (Screening assay (NPY-Y2 potentiators or agonists).), 1304 (Screening assay (NPY-Y1 potentiators or agonists).), 1710 (Screening assay (NPY-Y2 agonists).), 1791 (Summary AID.)]; assay type: functional
[7] = molecular target: Neuropeptide Y receptor type 1 (Homo sapiens, UniProt P25929); assay: Fluorescence-based counterscreen for agonists of NPY-Y2: cell-based high-throughput dose response assay for agonists of NPY-Y1.; assay type: functional
[8] = molecular target: T1, RNA-binding protein pos-1 (Caenorhabditis elegans, UniProt G5EF15); assay: inhibitors of POS-1/mex-3 RNA binding, dose response, biochemical, fluorescence polarization (AID 1964);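 also: purified POS-1 fused to maltose binding protein made in E. coli; potency of compounds blocking POS-1 binding to fluorescent RNA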
T1 sequence (G5EF15 whole entry): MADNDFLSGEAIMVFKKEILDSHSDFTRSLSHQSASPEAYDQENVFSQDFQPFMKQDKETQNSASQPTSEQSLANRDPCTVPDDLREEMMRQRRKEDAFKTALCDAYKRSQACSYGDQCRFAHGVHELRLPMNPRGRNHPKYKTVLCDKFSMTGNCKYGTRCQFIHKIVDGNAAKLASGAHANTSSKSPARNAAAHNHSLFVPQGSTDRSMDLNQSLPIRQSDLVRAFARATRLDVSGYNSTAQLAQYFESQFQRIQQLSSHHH

[9] = molecular target: T2, Zinc finger protein mex-5 (Caenorhabditis elegans, UniProt Q9XUB2); assay: MEX-5/TCR-2 RNA interaction inhibitors, dose response, biochemical, C. elegans, fluorescence polarization (AID 1960)
T2 sequence (Q9XUB2 whole entry): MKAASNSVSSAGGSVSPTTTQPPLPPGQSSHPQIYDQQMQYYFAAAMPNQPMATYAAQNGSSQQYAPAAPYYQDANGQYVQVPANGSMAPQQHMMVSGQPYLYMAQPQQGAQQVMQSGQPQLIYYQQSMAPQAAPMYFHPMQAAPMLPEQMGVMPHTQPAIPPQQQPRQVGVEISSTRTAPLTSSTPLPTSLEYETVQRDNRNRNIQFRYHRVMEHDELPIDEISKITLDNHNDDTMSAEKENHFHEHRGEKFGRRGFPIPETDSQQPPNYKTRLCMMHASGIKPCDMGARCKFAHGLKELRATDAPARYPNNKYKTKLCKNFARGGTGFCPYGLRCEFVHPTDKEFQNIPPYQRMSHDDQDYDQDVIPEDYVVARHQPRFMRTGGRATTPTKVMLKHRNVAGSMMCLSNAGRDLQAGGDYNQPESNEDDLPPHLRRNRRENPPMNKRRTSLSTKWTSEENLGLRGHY

[10] = growth suppression of PTEN-null colon cells, dose response, cell-based, HCT116 PTEN knockout (AID 1047); assay type: functional;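 also: HCT116 colon tumor cells with PTEN knocked out; cells exposed to compound for 60 hours before readout; potency for loss of cell viability measured by luminescence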
[11] = molecular target: Estrogen receptor beta (Homo sapiens, UniProt Q92731); assay: ERβ–SRC-3 coactivator interaction inhibitors, confirmation, orthogonal assay, biochemical, ELISA, streptavidin-HRP readout (AID 1060)
[12] = growth suppression of beta-catenin-knockout colon cells, dose response, cell-based, HCT116, human colon tumor (AID 1045); assay type: functional;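 also: HCT116 colon tumor cells with beta catenin knocked out; cells exposed to compound for 60 hours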
[13] = molecular target: Eukaryotic translation initiation factor 4E (Mus musculus, UniProt P63073); assay: eIF4E–eIF4G protein interaction inhibitors, dose response, biochemical, TR-FRET (AID 855); assay type: functional;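 also: potency for disrupting eIF4E binding to eIF4GI seen as loss of FRET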
[14] = molecular target: T3, Replicative DNA helicase DnaB (Mycobacterium tuberculosis, UniProt P9WMR3); assay: DnaB intein splicing inhibitors, dose response, biochemical, cell-free fluorescence (AID 449749); assay type: functional
T3 sequence (P9WMR3 whole entry): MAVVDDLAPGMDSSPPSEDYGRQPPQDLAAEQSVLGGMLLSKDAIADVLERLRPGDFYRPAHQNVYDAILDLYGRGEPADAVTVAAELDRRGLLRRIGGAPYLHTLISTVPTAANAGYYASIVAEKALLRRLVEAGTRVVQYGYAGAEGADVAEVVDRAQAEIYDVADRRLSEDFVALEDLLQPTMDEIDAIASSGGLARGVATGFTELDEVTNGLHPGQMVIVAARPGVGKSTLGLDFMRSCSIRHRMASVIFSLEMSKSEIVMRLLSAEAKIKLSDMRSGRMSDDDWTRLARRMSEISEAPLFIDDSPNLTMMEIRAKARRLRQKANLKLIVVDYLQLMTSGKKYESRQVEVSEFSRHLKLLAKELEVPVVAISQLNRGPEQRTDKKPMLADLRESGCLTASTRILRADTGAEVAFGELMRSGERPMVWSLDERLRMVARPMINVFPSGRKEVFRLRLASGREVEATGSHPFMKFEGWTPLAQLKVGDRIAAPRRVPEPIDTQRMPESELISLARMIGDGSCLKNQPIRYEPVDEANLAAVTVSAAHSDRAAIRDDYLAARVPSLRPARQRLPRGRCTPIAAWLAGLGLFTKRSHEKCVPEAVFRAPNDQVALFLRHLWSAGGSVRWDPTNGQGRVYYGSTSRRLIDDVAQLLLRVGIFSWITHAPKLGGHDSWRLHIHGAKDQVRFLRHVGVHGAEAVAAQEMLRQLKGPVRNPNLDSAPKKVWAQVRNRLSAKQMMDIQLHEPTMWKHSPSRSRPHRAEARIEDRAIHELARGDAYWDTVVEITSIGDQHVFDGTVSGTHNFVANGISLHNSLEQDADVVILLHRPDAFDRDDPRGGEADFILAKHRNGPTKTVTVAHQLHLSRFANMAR

[15] = molecular target: T4, Protein RecA (Mycobacterium tuberculosis, UniProt P9WHJ3); assay: Fluorescence Cell-Free Homogeneous Dose Retest to Identify Inhibitors of RecA-Intein Splicing Activity. [Related pubchem assays (depositor defined):AID2097, AID2223, AID489010, AID492950]; assay type: functional
T4 sequence (P9WHJ3 whole entry): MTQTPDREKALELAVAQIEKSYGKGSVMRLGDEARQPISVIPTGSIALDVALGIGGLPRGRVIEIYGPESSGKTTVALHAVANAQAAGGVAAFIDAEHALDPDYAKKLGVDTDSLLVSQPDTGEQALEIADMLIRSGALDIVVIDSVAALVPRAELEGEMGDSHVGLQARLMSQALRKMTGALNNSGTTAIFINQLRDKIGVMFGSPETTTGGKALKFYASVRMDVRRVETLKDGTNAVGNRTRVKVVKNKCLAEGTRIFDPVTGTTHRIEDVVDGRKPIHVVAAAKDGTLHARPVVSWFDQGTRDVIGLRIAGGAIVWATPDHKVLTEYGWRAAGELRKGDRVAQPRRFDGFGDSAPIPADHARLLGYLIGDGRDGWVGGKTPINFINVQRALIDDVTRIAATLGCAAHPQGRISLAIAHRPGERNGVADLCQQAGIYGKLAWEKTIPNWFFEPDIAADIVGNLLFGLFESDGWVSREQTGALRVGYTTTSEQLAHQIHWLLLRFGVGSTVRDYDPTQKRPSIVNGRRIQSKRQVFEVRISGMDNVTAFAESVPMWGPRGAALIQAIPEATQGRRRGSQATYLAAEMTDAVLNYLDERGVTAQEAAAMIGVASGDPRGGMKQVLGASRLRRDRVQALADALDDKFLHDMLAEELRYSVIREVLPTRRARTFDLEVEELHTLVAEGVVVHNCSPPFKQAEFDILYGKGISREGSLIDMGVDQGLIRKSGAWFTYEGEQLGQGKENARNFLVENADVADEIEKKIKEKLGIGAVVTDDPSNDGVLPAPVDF

Ion channel NompC, sequence (Q7T1G6 whole entry): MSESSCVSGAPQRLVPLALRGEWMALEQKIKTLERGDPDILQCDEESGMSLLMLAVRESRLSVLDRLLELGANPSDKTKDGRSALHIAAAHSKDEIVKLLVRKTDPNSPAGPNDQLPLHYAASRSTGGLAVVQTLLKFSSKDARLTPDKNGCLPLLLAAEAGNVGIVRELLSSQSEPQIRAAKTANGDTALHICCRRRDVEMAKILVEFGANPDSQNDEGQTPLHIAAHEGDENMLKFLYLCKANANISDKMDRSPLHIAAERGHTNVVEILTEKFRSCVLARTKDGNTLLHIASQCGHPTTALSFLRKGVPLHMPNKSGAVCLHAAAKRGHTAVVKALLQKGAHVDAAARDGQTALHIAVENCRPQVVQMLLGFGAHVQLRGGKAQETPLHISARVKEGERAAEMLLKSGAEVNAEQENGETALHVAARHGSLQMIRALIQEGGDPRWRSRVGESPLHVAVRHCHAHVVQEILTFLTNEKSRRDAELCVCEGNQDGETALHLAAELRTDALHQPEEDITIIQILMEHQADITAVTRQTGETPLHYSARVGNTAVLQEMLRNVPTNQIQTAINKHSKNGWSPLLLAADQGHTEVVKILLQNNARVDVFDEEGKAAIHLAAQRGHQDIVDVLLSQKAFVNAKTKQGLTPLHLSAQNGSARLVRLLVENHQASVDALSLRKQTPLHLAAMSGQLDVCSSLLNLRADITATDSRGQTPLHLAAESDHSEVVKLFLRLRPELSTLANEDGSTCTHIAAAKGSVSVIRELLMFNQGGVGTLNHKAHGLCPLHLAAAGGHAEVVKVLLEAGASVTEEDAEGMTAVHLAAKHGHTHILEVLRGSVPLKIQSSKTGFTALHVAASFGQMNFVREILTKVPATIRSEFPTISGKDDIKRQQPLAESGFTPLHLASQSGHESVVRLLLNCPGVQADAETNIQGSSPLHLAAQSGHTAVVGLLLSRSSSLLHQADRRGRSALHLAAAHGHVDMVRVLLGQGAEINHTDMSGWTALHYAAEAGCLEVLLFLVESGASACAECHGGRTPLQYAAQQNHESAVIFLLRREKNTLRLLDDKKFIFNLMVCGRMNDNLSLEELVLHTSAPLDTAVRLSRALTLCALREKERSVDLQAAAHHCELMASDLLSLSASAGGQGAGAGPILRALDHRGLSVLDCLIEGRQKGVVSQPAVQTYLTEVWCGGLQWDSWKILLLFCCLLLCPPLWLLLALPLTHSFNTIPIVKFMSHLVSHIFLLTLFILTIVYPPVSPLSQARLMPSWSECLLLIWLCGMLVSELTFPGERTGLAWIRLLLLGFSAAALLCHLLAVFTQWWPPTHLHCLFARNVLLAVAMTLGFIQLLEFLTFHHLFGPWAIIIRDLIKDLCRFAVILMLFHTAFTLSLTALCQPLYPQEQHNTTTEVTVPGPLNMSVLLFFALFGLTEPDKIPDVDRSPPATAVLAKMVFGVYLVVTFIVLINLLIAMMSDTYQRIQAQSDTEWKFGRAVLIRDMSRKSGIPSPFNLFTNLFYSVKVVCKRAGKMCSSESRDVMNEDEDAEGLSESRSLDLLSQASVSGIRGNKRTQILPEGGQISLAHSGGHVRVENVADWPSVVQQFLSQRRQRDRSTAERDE
Polyadenylate-binding protein 1, sequence (P11940 whole entry): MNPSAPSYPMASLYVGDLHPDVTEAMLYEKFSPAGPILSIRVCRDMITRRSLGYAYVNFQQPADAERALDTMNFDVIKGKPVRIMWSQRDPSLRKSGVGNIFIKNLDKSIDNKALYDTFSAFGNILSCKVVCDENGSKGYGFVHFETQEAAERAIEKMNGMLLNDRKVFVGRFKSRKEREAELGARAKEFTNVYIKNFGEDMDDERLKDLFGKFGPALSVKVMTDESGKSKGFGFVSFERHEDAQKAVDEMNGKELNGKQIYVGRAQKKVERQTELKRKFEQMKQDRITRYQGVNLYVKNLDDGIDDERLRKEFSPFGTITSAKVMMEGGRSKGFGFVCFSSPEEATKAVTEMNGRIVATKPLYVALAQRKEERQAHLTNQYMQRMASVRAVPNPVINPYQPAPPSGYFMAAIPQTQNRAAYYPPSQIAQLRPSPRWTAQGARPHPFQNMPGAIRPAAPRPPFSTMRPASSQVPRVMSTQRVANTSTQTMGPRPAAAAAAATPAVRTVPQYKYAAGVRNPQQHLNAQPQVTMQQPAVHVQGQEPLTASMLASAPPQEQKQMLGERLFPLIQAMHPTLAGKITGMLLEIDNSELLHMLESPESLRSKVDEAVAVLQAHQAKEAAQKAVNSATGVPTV
Mucolipin-3, sequence (Q8TDD5 whole entry): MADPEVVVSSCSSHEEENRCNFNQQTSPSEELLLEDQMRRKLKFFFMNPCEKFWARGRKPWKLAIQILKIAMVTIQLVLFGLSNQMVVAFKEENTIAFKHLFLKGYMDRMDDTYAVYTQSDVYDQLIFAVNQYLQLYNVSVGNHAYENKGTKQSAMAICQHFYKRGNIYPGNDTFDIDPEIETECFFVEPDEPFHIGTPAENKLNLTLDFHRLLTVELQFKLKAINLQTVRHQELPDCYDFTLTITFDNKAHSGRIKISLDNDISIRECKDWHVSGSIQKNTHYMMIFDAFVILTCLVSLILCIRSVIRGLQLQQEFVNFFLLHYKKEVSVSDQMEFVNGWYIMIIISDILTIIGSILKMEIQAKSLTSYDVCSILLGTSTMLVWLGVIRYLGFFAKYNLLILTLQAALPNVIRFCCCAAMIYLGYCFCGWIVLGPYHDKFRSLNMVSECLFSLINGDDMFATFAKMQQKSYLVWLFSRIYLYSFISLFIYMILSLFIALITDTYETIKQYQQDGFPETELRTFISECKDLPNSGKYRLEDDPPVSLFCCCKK
Neuropeptide Y receptor type 1, sequence (P25929 whole entry, the tested form may be a part): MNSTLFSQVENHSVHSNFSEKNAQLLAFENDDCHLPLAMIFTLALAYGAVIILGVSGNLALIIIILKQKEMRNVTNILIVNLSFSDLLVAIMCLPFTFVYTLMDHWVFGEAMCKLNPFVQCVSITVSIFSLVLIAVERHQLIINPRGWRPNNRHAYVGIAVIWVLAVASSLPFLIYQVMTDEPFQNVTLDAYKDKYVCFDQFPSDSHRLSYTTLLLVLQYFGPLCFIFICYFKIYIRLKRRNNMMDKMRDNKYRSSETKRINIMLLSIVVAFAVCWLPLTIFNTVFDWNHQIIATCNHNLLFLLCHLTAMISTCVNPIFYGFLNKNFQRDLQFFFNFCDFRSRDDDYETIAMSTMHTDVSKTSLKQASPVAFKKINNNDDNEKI
Estrogen receptor beta, sequence (Q92731 whole entry): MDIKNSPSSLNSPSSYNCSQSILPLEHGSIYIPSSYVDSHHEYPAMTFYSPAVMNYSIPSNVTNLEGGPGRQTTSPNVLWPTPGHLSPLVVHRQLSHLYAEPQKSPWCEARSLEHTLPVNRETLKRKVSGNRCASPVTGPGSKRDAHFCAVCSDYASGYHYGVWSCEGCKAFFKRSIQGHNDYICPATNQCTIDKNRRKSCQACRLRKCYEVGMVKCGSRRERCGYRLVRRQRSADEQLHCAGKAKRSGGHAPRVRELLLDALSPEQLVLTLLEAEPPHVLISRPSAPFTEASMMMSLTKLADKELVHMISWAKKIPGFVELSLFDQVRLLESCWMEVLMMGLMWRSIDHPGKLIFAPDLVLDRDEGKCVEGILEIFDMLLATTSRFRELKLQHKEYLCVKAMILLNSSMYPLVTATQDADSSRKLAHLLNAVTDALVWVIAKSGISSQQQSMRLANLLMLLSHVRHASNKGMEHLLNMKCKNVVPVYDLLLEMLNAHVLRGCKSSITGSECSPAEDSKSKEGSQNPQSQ
Neuropeptide Y receptor type 2, sequence (P49146 whole entry): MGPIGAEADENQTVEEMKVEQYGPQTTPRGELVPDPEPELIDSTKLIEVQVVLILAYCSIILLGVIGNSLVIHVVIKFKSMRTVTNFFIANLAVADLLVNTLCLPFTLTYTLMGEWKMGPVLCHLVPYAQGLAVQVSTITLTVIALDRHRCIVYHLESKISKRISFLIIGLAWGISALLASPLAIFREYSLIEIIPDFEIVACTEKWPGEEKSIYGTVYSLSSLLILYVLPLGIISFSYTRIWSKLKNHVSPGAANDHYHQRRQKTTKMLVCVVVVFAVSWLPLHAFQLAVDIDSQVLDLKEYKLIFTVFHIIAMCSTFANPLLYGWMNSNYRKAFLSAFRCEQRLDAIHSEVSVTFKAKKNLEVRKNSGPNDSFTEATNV
Eukaryotic translation initiation factor 4E, sequence (P63073 whole entry): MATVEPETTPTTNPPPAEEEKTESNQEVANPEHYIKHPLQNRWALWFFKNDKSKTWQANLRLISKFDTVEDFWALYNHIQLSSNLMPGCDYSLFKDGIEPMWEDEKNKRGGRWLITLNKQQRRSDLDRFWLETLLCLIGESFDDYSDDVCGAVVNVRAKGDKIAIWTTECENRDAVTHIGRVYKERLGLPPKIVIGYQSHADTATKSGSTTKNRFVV

C[N+]1=C2c3ccccc3N=CN2CC1
IC50 [1]: > 100 µM (inactive)
IC50 [2]: 4.47 µM (active)

CCN(CC)C(=O)CC(c1ccc2c(c1)OCO2)c1c(OC)cc(OC)c2ccc(=O)oc12 (centres undefined)
IC50 [1]: 10.3 µM (active)
IC50 [2]: 20.1 µM (active)

O=C(C1Cc2ccccc2CN1S(=O)(=O)c1ccc(F)cc1)N1CCCCC1 (centres undefined)
EC50 [3]: 2.06 µM (active)
EC50 [4]: 13.3 µM (not active)

CC1CCN(S(=O)(=O)c2ccc3ccccc3c2)CC1
EC50 [3]: 2.83 µM (active)
EC50 [4]: > 29.9 µM (not active)

CC(Nc1ccccc1)c1cccnc1 (centres undefined)
EC50 [5]: > 35.4 µM (not active)
EC50 [6]: > 35.4 µM (not active)
EC50 [7]: > 35.4 µM (not active)

CN1CCN(C2=C(Cl)C(=O)C(c3cnc(N4CCCCC4)s3)=C(Cl)C2=O)CC1
EC50 [8]: 5.11 µM (active)
EC50 [9]: 4.18 µM (active)
EC50 [10]: 10.1 µM (active)
IC50 [11]: 0.63 µM (not active)
EC50 [12]: 8.57 µM (active)
IC50 [13]: 19.2 µM (inactive)
AC50 [14]: > 380 µM (inactive)
EC50 [15]: 1.29 µM (active)
